Laboratory results taken from ChEMBL document CHEMBL1201862, “PubChem BioAssay data set” (2004).
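Protocol summary: plate cells (96-well), add compound at 5 concentrations, incubate 48 h, interpolate endpoints linearly. Here, GI50 denotes the concentration required for 50% inhibition of growth.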 The source made the active and inactive calls. Cut-off read from the data, not from the text of the source: active = GI50 up to about 1.1 µM and inactive = higher.

How the values were obtained:
Test in all cases: growth of human tumour cells (NCI), 48 h
UACC-62 = test system: UACC-62
786-0 = test system: 786-0
SR = test system: SR
MOLT-4 = test system: MOLT-4
SNB-19 = test system: SNB-19
HL-60 = test system: HL-60
A549 = test system: A549
UACC-257 = test system: UACC-257
OVCAR-5 = test system: OVCAR-5
Hs-578T = test system: Hs-578T
SNB-75 = test system: SNB-75
M14 = test system: M14
EKVX = test system: EKVX
SK-MEL-5 = test system: SK-MEL-5
BT-549 = test system: BT-549
U-251 = test system: U-251
ACHN = test system: ACHN
SF-268 = test system: SF-268
NCI/ADR-RES = test system: NCI/ADR-RES

| Compound | GI50 (UACC-62) | GI50 (786-0) | GI50 (SR) | GI50 (MOLT-4) | GI50 (SNB-19) | GI50 (HL-60) | GI50 (A549) | GI50 (UACC-257) | GI50 (OVCAR-5) | GI50 (Hs-578T) | GI50 (SNB-75) | GI50 (M14) | GI50 (EKVX) | GI50 (SK-MEL-5) | GI50 (BT-549) | GI50 (U-251) | GI50 (ACHN) | GI50 (SF-268) | GI50 (NCI/ADR-RES) |
| --- | --- | --- | --- | --- | --- | --- | --- | --- | --- | --- | --- | --- | --- | --- | --- | --- | --- | --- | --- |
| C=C1C(=O)O[C@H]2C[C@@H]1[C@@H](O)[C@H](O)[C@@H](C)CCCC(C)=CCC[C@@]2(C)O | 16.6 µM (inactive) | 15.8 µM (inactive) | 39.7 µM (inactive) | 4.84 µM (inactive) | > 100 µM (inactive) | 15.1 µM (inactive) | 35.1 µM (inactive) | 15.2 µM (inactive) | 19.1 µM (inactive) | 18 µM (inactive) | 45.5 µM (inactive) | 13.6 µM (inactive) | 54 µM (inactive) | 14.3 µM (inactive) | 10 µM (inactive) | 24.7 µM (inactive) | 14.6 µM (inactive) | 22.6 µM (inactive) |  |
| CC1OC(n2ccc(=O)[nH]c2=O)C=C(OC(=O)c2ccccc2)C1=O (stereo unspecified) | > 100 µM (inactive) | > 100 µM (inactive) |  | > 100 µM (inactive) | > 100 µM (inactive) | > 100 µM (inactive) | 39.3 µM (inactive) | 86.9 µM (inactive) |  |  | 27 µM (inactive) | 88.9 µM (inactive) | > 100 µM (inactive) | 56.1 µM (inactive) |  | 29 µM (inactive) | 76.7 µM (inactive) |  |  |
| Cc1coc2c1[C@@H](O)[C@@]1(C)[C@H](CCC[C@@H]1C)C2 | 56.2 µM (inactive) | 34.8 µM (inactive) | 21.6 µM (inactive) | 24.8 µM (inactive) | 72.9 µM (inactive) | 23.7 µM (inactive) |  | 33 µM (inactive) | 67 µM (inactive) | 61.7 µM (inactive) |  | 18.2 µM (inactive) | 69 µM (inactive) | 49.9 µM (inactive) |  |  | 33.8 µM (inactive) | 34.6 µM (inactive) | 24.8 µM (inactive) |
| O=[N+]([O-])c1nccn1CC1OC(n2ccnc2[N+](=O)[O-])C(O)C(O)C1O (stereo unspecified) | > 100 µM (inactive) | > 100 µM (inactive) | > 100 µM (inactive) | > 100 µM (inactive) | > 100 µM (inactive) | > 100 µM (inactive) | > 100 µM (inactive) | > 100 µM (inactive) | > 100 µM (inactive) | > 100 µM (inactive) | > 100 µM (inactive) | > 100 µM (inactive) | > 100 µM (inactive) | > 100 µM (inactive) | > 100 µM (inactive) | > 100 µM (inactive) | > 100 µM (inactive) |  |  |
| FC(F)(F)c1cccc2ns[s+]c12 | > 100 µM (inactive) | > 100 µM (inactive) | > 100 µM (inactive) | > 100 µM (inactive) | > 100 µM (inactive) | > 100 µM (inactive) | > 100 µM (inactive) | > 100 µM (inactive) | > 100 µM (inactive) |  | > 100 µM (inactive) | > 100 µM (inactive) | > 100 µM (inactive) | 69.8 µM (inactive) |  | > 100 µM (inactive) | > 100 µM (inactive) | > 100 µM (inactive) |  |
| C=C(C)CCC(=O)[C@](C)(O)[C@H]1[C@H](O)C[C@@]2(C)[C@@H]3CCc4c(cc(OC5OC(CO)C(O)C(O)C5O)c(O)c4C)C3(C)C(=O)C[C@]12C (stereo partly specified) | > 100 µM (inactive) | > 100 µM (inactive) | > 100 µM (inactive) | > 100 µM (inactive) | > 100 µM (inactive) |  | > 100 µM (inactive) | > 100 µM (inactive) | > 100 µM (inactive) |  | > 100 µM (inactive) | > 100 µM (inactive) | > 100 µM (inactive) | > 100 µM (inactive) | > 100 µM (inactive) | > 100 µM (inactive) | > 100 µM (inactive) | > 100 µM (inactive) | > 100 µM (inactive) |
| O=C(c1ccccc1)c1c(C(F)(F)F)[n+]([O-])c2cc(F)c(F)cc2[n+]1[O-] | 2.22 µM (inactive) | 0.525 µM (active) | < 0.01 µM (active) | 0.242 µM (active) | 4.05 µM (inactive) | < 0.144 µM (active) | 2.95 µM (inactive) | 1.79 µM (inactive) | 1.51 µM (inactive) | 0.942 µM (active) | 1.95 µM (inactive) | 0.698 µM (active) | 2.45 µM (inactive) | 0.877 µM (active) |  | 0.377 µM (active) | 0.0929 µM (active) | 1.32 µM (inactive) | 0.367 µM (active) |
| CC(C)(C)n1[nH]c(=O)n(C(C)(C)C)c1=O | > 100 µM (inactive) | > 100 µM (inactive) | > 100 µM (inactive) | > 100 µM (inactive) | > 100 µM (inactive) | > 100 µM (inactive) | > 100 µM (inactive) | > 100 µM (inactive) | > 100 µM (inactive) | > 100 µM (inactive) | > 100 µM (inactive) | > 100 µM (inactive) |  | > 100 µM (inactive) | > 100 µM (inactive) | > 100 µM (inactive) | > 100 µM (inactive) | > 100 µM (inactive) |  |
| CCOC(=O)c1c(-c2ccc(OC)c(O)c2)c(C#N)c(=S)n(C2OC(CO)C(O)C(O)C2O)c1-c1ccccc1 (stereo unspecified) | > 100 µM (inactive) | > 100 µM (inactive) | > 100 µM (inactive) | > 100 µM (inactive) | > 100 µM (inactive) |  | > 100 µM (inactive) | > 100 µM (inactive) |  | > 100 µM (inactive) |  | > 100 µM (inactive) | 1.6 µM (inactive) | > 100 µM (inactive) |  | > 100 µM (inactive) | > 100 µM (inactive) | > 100 µM (inactive) | > 100 µM (inactive) |
